Measurements taken from patent publication US8673906B2, “Chromenone derivatives” (AstraZeneca AB, priority 2010, dated 2014).
Like-named read-outs stand apart in the source and are kept apart here. One block for each compound: values may come before it.

How the values were obtained:
PI3Kβ = PI3Kβ (Homo sapiens (Human), UniProt P42338); assay: In vitro enzyme inhibition assay (Kinase Glo based enzyme activity assay); type: biochemical; conditions: Test (a)
How it was run: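 Human recombinant PI3Kβ preincubated 20 min with compound in 50 mM Tris pH 7.4, 0.05% CHAPS, 2.1 mM DTT, 10 mM MgCl2, then reacted 80 min with 80 μM PIP2 and 80 μM ATP (1% DMSO). Remaining ATP read by Kinase-Glo luminescence; IC50 from 12-concentration non-linear regression.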

[1] = tested on: phospho AKT (ser473) in MAD-MB-468 cells; assay: Detection of phospho AKT (ser473) in MAD-MB-468 cells; type: cell-based, human; conditions: Test (b)
Method: (b) Protocol for Detection of Phospho AKT (Ser473) in MAD-MB-468 Cells
MDA-MB-468 cells (human breast adenocarcinoma ATCC HTB 132) are seeded into Greiner 384 well black flat-bottomed plates by automated cell culture robot (Selec T). Cells can also be maintained manually and seeded into plates using multidrop or Wellmate. Cells seeded at 1500 cell/well in 40 μl of DMEN containing 10% FCS and 1% glutamine. Cell plates are incubated for 18 hours in a 37° C. incubator.
Compounds are dosed onto cells using an Echo acoustic dispenser, which dispenses nl quantities of compound or DMSO. Compounds are dosed in a 12 point concentration range from 30 μM top dose, 28 compounds are dosed on one plate. There are 17 DMSO only positive control wells per plate, and 16 negative control well which have been dosed with a concentration of reference compound that will knockout the pAKT signal.
Plates are incubated at 37° C. for 2 hours, cells are the fixed by the addition of 10 μl of a 3.7% Formaldehyde solution in a fume cupboard using a Wellmate.
After 30 minutes to allow for fixation, the fixative and media are removed and the plates washed with Proclin PBS/A using Tecan PW384 plate washer in a fume cupboard. Wells are blocked and permeabilised with the addition of 40 μl of PBS containing 0.5% Tween20 and 1% marvel using a Wellmate and incubated for 60 minutes at room temperature.
Permeabilisation and blocking buffer removed using Tecan PW384 plate washer, then 20 μl primary antibody solution added using a Wellmate. The primary antibody solution is a 1:500 dilution of Rabbit anti-phospho AKT Ser 473 (Cell signalling technologies catalogue number #3787) in PBS/T containing 1% marvel (dried milk powder) and incubated overnight at 4° C.
Plates are washed using a Tecan PW384 plate washer three times with Phosphate Buffered Saline+0.05% (v/v) Polysorbate20 and Proclin300 (Supelco). 20 μl of secondary antibody solution is then added to each well using a Wellmate and incubated for 1 hour at Room Temp. The secondary antibody solution is a 1:1000 dilution of Alexa Fluor 488 anti-Rabbit (Molecular Probes cat no A11008) diluted in Phosphate Buffered Saline+0.05% (v/v) Polysorbate20 containing 1% marvel. Plates are washed three times as before then 20 μl PBS added to each well and plates sealed with black plate sealer.
The plates are read on an Acumen reader as soon as possible. Using this system IC50 values can be generated and quality of plates determined by control wells. Reference compounds are run each time to monitor assay performance.

[2] = approximate value, read-out: IC50 versus PI3Kβ
[3] = human recombinant enzyme, read-out: PI3Kβ inhibition, IC50
[4] = Homo sapiens, approximate value, read-out: IC50 versus cellular phospho AKT (ser473) in MAD-MB-468 cells
[5] = Homo sapiens, mean IC50 value calculated from a larger number of replicates, read-out: IC50 versus cellular phospho AKT (ser473) in MAD-MB-468 cells (value in brackets)
[6] = approximate value, read-out: IC50 versus cellular phospho AKT (ser473) in MAD-MB-468 cells

Chain of PI3Kβ (P42338 whole entry): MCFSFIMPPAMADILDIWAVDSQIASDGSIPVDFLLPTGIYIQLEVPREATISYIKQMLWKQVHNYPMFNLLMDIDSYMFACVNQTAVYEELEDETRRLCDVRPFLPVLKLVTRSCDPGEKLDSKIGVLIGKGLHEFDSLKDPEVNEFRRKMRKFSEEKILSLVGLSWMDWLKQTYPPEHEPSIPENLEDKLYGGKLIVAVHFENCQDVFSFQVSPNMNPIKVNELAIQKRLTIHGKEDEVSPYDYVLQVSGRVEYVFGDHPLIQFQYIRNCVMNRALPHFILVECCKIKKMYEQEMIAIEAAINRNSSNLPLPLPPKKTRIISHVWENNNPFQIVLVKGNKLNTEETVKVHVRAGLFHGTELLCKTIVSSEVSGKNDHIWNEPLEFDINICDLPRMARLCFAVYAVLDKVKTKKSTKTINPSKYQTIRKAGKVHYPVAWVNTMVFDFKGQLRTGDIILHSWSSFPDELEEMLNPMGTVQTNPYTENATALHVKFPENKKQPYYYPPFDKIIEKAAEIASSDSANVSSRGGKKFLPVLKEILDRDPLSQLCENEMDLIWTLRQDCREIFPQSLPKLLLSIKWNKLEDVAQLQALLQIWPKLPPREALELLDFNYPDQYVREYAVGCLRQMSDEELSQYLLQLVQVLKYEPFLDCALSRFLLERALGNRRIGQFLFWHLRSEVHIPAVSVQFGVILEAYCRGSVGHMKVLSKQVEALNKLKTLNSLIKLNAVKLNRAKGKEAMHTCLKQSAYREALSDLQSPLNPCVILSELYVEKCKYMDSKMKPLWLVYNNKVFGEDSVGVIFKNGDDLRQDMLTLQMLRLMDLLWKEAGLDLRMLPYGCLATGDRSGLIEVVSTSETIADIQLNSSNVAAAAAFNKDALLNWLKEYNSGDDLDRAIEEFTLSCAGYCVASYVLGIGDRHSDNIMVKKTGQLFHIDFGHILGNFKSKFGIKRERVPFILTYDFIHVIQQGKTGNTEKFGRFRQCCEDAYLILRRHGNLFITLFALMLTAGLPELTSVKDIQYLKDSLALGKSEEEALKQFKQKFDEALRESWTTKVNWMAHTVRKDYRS
Chain of PI3Kβ (P27986 whole entry partner): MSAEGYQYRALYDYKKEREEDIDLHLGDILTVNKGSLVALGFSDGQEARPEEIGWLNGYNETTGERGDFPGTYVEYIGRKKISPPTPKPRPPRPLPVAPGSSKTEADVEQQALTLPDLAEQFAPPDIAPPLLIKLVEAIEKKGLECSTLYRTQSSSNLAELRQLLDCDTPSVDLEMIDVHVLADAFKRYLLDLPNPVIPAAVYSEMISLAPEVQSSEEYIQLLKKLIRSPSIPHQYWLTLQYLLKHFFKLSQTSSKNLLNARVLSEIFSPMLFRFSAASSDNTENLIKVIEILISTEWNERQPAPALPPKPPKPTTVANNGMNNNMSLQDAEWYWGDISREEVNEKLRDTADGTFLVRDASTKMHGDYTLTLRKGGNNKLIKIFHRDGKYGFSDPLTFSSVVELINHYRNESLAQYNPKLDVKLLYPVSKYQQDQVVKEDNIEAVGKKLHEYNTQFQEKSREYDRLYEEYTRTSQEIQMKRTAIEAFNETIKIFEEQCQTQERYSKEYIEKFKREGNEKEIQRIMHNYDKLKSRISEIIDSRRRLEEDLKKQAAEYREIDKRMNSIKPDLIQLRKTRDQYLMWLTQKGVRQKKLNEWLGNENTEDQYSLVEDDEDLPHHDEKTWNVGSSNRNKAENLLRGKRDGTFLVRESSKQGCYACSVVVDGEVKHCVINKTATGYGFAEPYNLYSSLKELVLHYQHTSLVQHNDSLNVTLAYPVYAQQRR

Compound: CC(Nc1cc(F)cc(F)c1)c1cc(C(=O)N(C)C)cc2c(=O)cc(N3CCOCC3)oc12 (single isomer, unassigned) [Example 3.06a, 8-(1-(3,5-difluorophenylamino)ethyl)-N,N-dimethyl-2-morpholino-4-oxo-4H-chromene-6-carboxamide]
- IC50 [1, 6]: ~13500 nM

Compound: CC(Nc1cc(F)cc(F)c1F)c1cc(C(=O)N(C)C)cc2c(=O)cc(N3CCOCC3)oc12 (single isomer, unassigned) [Example 3.13a, N,N-dimethyl-2-morpholino-4-oxo-8-(1-(2,3,5-trifluorophenylamino)ethyl)-4H-chromene-6-carboxamide]
- IC50 (PI3Kβ; [2]): ~4500 nM
- IC50 (PI3Kβ; [3]): 4540 nM
- IC50 [1, 4]: ~4300 nM

Compound: CC(c1cc(C(=O)N(C)C)cc2c(=O)cc(N3CCOCC3)oc12)N(C)c1cc(F)cc(F)c1 (single isomer, unassigned) [Example 5.0a, 8-(1-((3,5-difluorophenyl)(methyl)amino)ethyl)-N,N-dimethyl-2-morpholino-4-oxo-4H-chromene-6-carboxamide]
- IC50 [1, 4]: ~15 nM

Compound: CC(Nc1cc(F)cc(F)c1)c1cc(C(=O)N(C)C)cc2c(=O)cc(N3CCOCC3)oc12 (single isomer, unassigned; (-)) [Example 3.06b, (−)-8-(1-(3,5-difluorophenylamino)ethyl)-N,N-dimethyl-2-morpholino-4-oxo-4H-chromene-6-carboxamide]
- IC50 [1, 5]: ~3 nM
- IC50 [1, 6]: ~5 nM

Compound: CC(Nc1ccc(F)cc1)c1cc(C(=O)NCCN(C)C)cc2c(=O)cc(N3CCOCC3)oc12 (centres unmarked) [Example 1.00, N-(2-(dimethylamino)ethyl)-8-(1-(4-fluorophenylamino)ethyl)-2-morpholino-4-oxo-4H-chromene-6-carboxamide]
- IC50 (PI3Kβ; [2]): ~2 nM
- IC50 (PI3Kβ; [3]): 2 nM
- IC50 [1, 4]: ~9 nM

Compound: CC(c1cc(C(=O)N(C)C)cc2c(=O)cc(N3CCOCC3)oc12)N(C)c1ccc(F)cc1 (centres unmarked) [Example 3.07, 8-(1-((4-fluorophenyl)(methyl)amino)ethyl)-N,N-dimethyl-2-morpholino-4-oxo-4H-chromene-6-carboxamide]
- IC50 (PI3Kβ; [2]): ~29 nM
- IC50 [1, 4]: ~580 nM

Other lines, results leading:

- IC50 (PI3Kβ; [2]): ~9 nM
- IC50 (PI3Kβ; [3]): 9 nM
- IC50 [1, 4]: ~35 nM
- IC50 [1, 5]: ~37 nM
Compound: CC(Nc1ccc(F)c(F)c1)c1cc(C(=O)N(C)C)cc2c(=O)cc(N3CCOCC3)oc12 (racemic) [Example 3.03, 8-(1-(3,4-difluorophenylamino)ethyl)-N,N-dimethyl-2-morpholino-4-oxo-4H-chromene-6-carboxamide]

- IC50 (PI3Kβ; [2]): ~11 nM
- IC50 (PI3Kβ; [3]): 11 nM
- IC50 [1, 4]: ~12 nM
Compound: CC(Nc1cccc(Cl)c1F)c1cc(C(=O)N(C)C)cc2c(=O)cc(N3CCOCC3)oc12 (racemic) [Example 3.04, 8-(1-(3-chloro-2-fluorophenylamino)ethyl)-N,N-dimethyl-2-morpholino-4-oxo-4H-chromene-6-carboxamide]

- IC50 [1, 4]: ~9 nM
Compound: CC(Nc1cc(F)cc(F)c1)c1cc(C(=O)N(C)C)cc2c(=O)cc(N3CCOCC3)oc12 (racemic) [Example 3.06, 8-(1-(3,5-difluorophenylamino)ethyl)-N,N-dimethyl-2-morpholino-4-oxo-4H-chromene-6-carboxamide]

- IC50 (PI3Kβ; [2]): ~5 nM
- IC50 (PI3Kβ; [3]): 5 nM
- IC50 [1, 4]: ~17 nM
Compound: CC(Nc1cccc(Cl)c1F)c1cc(C(=O)N(C)CCO)cc2c(=O)cc(N3CCOCC3)oc12 (centres unmarked) [Example 2.05, 8-(1-(3-chloro-2-fluorophenylamino)ethyl)-N-(2-hydroxyethyl)-N-methyl-2-morpholino-4-oxo-4H-chromene-6-carboxamide]

- IC50 [1, 4]: ~27 nM
Compound: CC(Nc1cc(F)c(F)c(F)c1)c1cc(C(=O)N(C)C)cc2c(=O)cc(N3CCOCC3)oc12 (centres unmarked) [Example 3.11, N,N-dimethyl-2-morpholino-4-oxo-8-(1-(3,4,5-trifluorophenylamino)ethyl)-4H-chromene-6-carboxamide]

- IC50 (PI3Kβ; [2]): ~4 nM
- IC50 (PI3Kβ; [3]): 4 nM
- IC50 [1, 4]: ~1 nM
- IC50 [1, 5]: ~2 nM
Compound: CC(Nc1cc(F)cc(F)c1)c1cc(C(=O)N2CCCC2)cc2c(=O)cc(N3CCOCC3)oc12 (centres unmarked) [Example 4.02, 8-(1-(3,5-difluorophenylamino)ethyl)-2-morpholino-6-(pyrrolidine-1-carbonyl)-4H-chromen-4-one]

- IC50 (PI3Kβ; [3]): 12 nM
Compound: CC(c1cc(C(=O)N(C)C)cc2c(=O)cc(N3CCO[C@H](C)C3)oc12)N(C)c1cc(F)cc(F)c1 (stereo partly drawn) [Example 10.01, 8-(1-((3,5-difluorophenyl)(methyl)amino)ethyl)-N,N-dimethyl-2-((R)-2-methylmorpholino)-4-oxo-4H-chromene-6-carboxamide]

- IC50 (PI3Kβ; [3]): 11 nM
Compound: CC(c1cc(C(=O)N(C)CCO)cc2c(=O)cc(N3CCO[C@H](C)C3)oc12)N(C)c1cc(F)cc(F)c1 (stereo partly drawn) [Example 10.02, 8-(1-((3,5-difluorophenyl)(methyl)amino)ethyl)-N-(2-hydroxyethyl)-N-methyl-2-((R)-2-methylmorpholino)-4-oxo-4H-chromene-6-carboxamide]

- IC50 (PI3Kβ; [3]): 9 nM
Compound: CC(c1cc(C(=O)N2CCC(O)CC2)cc2c(=O)cc(N3CCO[C@H](C)C3)oc12)N(C)c1cc(F)cc(F)c1 (stereo partly drawn) [Example 10.03, 8-(1-((3,5-difluorophenyl)(methyl)amino)ethyl)-6-(4-hydroxypiperidine-1-carbonyl)-2-((R)-2-methylmorpholino)-4H-chromen-4-one]

- IC50 (PI3Kβ; [3]): 21 nM
Compound: CC(Nc1cc(F)cc(F)c1)c1cc(C(=O)N(C)C)cc2c(=O)cc(N3CCOC[C@@H]3C)oc12 (stereo partly drawn) [Example 11.00, 8-(1-(3,5-difluorophenylamino)ethyl)-N,N-dimethyl-2-((S)-3-methylmorpholino)-4-oxo-4H-chromene-6-carboxamide]
